Experimental data from patent publication US7202280B2, “Methods for the treatment and prevention of pancreatitis and for induction of liver regeneration” (priority 2002, dated 2007).

Legend:
MT-SSAT transgenic rats = test: Zinc-induced pancreatitis, prevention by pretreatment with analogue (plasma α-amylase, pancreatic histology); format: in vivo, rat; design: key to Histological scoring (0 to 4): Edema / Histological scoring (0 to 4): Inflammation: 0 (absent); 1 (minimal); 4 (maximal); conditions: for Histological scoring (0 to 4): Edema / Histological scoring (0 to 4): Inflammation / Histological scoring (0 to 4): Necrosis / Histological scoring (0 to 4): Vacuolization: Zn; for Plasma α-amylase activity / acinar necrosis (pancreatic histology): transgenic rats; for Plasma α-amylase activity: zinc 10 mg/kg; for acinar necrosis (pancreatic histology): zinc
Procedure: FIG. 2. Plasma α-amylase activity in syngenic and transgenic rats after zinc and methylspermidine. The animals were treated as in FIG. 1. Six to eight animals in each group. *p<0.05 as compared with zinc-treated animals. ***p<0.001 as compared with untreated animals. Me-spd, methylspermidine.
FIGS. 3a–3d. Histology of pancreas of transgenic rats after zinc and methylspermidine. The animals were treated as in FIGS. 1a–1d. Magnification ×125. […] The animals received zinc (10 mg/kg) 24 h before sacrifice without (FIG. 3b) or with methylspermidine (50 mg/kg) either as single dose 4 h before zinc (FIG. 3c) or as two doses 20 h and 4 h before zinc (FIG. 3d).
Formalin-fixed pancreatic specimens were embedded in paraffin, cut into 5-μm-thick slices, and stained with hematoxylin/eosin. The stained sections were coded and scored by the participating gastroenterologist (K.-H. H.) according to the method of Niederau et al. (Niederau, C., Liddle, R. A., Ferrell, L. D., and Grendell, J. H. (1986) J. Clin. Invest. 78, 1056–1063).
FIG. 3 depicts pancreatic histology in transgenic animals after saline (FIG. 3a), after zinc alone (FIG. 3b), after zinc and single dose of the analogue (FIG. 3c) and after zinc and two doses of the analogue (FIG. 3d). The acinar structure of untreated transgenic animal is entirely normal (FIG. 3a) whereas zinc induced distinct pancreatitis with more than 50% of the acinar cells undergoing necrosis (FIG. 3b). […] Table A summarizes the histological scoring of pancreatic specimens from all animals. […] A single dose of the analogue administered prior to zinc reduced the extent of necrosis while after two repeated doses of the compound very little, if any, necrosis was present (Table A).
MT-SSAT (UKUR30) transgenic rats received zinc (10 mg/kg i.p.) 24 h before sacrifice either alone or in the combination with Me2SPM (25 mg/kg i.p.) administered twice 20 h and 4 h before zinc. There were three animals in each group. Plasma amylase activity was measured as a marker of pancreatitis.

[1] = tested on: syngenic and transgenic rats; test: Liver regeneration after partial hepatectomy (liver weight, PCNA labeling index, thymidine incorporation); format: in vivo, rat; conditions: for stimulation of DNA synthesis (thymidine incorporation): 25 mg/kg 20 h and 4 h before; for PCNA-positive hepatocytes: repeated experiment
Procedure: FIGS. 5a–5b. Liver weight (FIG. 5a) and PCNA labeling index (FIG. 5b) in syngenic and transgenic rats after partial hepatectomy and methylspermidine. Three to five animals in each group. *p<0.05, ***p<0.001 as compared with preoperative values. Md-spd, methylspermidine.
FIG. 10. Effect of polyamine analogues on thymidine incorporation in 24-h regenerating livers of SSAT transgenic rats. […] Ten μCi of tritiated thymidine was given 30 min before sacrifice. Three to four animals in each group.
The production of transgenic Wistar rats (UKUR30) and mice (UKU181) harboring metallothionein-SSAT fusion gene (Suppola, S., Pietilä, M., Parkkinen, J. J., Korhonen, V. P., Alhonen, L., Halmekytö, M., Porter, C. W., and Jänne, J. (1999) Biochem. J. 338, 311–316) has been described earlier (Alhonen, L., Parkkinen, J. J., Keinänen, T., Sinervirta, R., Herzig, K. H., and Jänne, J. (2000) Proc. Natl. Acad. Sci. U.S.A. 97, 8290–8295; Lukkarinen, J., Gröhn, O., Sinervirta, R., Järvinen, A., Kauppinen, R. A., Jänne, J., and Alhonen, L. (1997) Stroke 28, 639–645). Partial hepatectomy was carried out according to the original method of Higgins and Anderson (Higgins, G. H., and Anderson, R. M. (1931) Arch. Pathol. 12, 186–202). Treatments before partial hepatectomy and the determination of DNA synthesis were carried out as in (Räsänen, T. L., Alhonen, L., Sinervirta, R., Keinänen, T., Herzig, K. H., Suppola, S., Khomutov, A. R., Vepsäläinen, J., and Jänne, J. (2002) J. Biol. Chem. 277, 39867–39872). […] The animals were sacrificed 24 h after the second MDL72527 injection and liver pieces were frozen in liquid nitrogen, homogenized in buffer (25 mM Tris-HCl pH 7.4, 0.1 mM EDTA, 1 mM DTT). An aliquot of the homogenates was used for the polyamine assays. The homogenates were centrifuged (at 13 000×g, for 30 min, at 4° C.) and the supernatants were used for the enzyme activity assays. The Institutional Animal Care and Use Committee of the University of Kuopio and by the Provincial Government approved animal experiments.
PCNA was detected from formalin-fixed paraffin-embedded tissue section as described in detail earlier (Alhonen, L., Räsänen, T. L., Sinervirta, R., Parkkinen, J. J., Korhonen, V. P., Pietilä, M., and Jänne, J. (2002) Biochem. J. 362, 149–15).
PCNA was used as an indicator of proliferative activity during liver regeneration. Immunohistochemical detection of PCNA is a convenient and commonly used method to grade proliferative activity in various tissues. PCNA expression is closely correlated with the S-phase of the cell cycle (17). FIG. 5b depicts PCNA labeling index before partial hepatectomy and at 24 h postoperatively in syngenic and transgenic rats without or with methylspermidine treatment. In resting liver, only about 1% of the hepatocytes were PCNA-positive. In syngenic animals, the number of PCNA-positive cells increased sharply to over 30% at 24 h after the operation whereas in transgenic animals the number of positive cells remained at the low preoperative level at this time point (FIG. 5b). […] The experiment was repeated with other groups of syngenic and transgenic rats. In this experiment, PCNA-positive hepatocytes accounted for 0.5±0.1% in resting syngenic liver. The number of positive cells rose to 10.7±3.5% at 24 h postoperatively without the analogue (p<0.001) and to 9.8±1.5% with the analogue (p<0.001). The corresponding figures for the transgenic animals were 0.20±0.0 before the operation, 0.42±0.24% at 24 h postoperatively without methylspermidine and 25.9±4.9% with methylspermidine (p<0.001). It thus appears that the analogue completely reversed the proliferative block in transgenic livers.
Liver regeneration could be restored by a prior administration of α-methylspermidine (Räsänen, T. L., Alhonen, L., Sinervirta, R., Keinänen, T., Herzig, K. H., Suppola, S., Khomutov, A. R., Vepsäläinen, J., and Jänne, J. (2002) J. Biol. Chem. 277, 39867–39872). […]

[2] = MT-SSAT transgenic rats, zinc 10 mg/kg i.p. 24 h, Me2SPM 25 mg/kg i.p. 20 h and 4 h before zinc
[3] = SSAT transgenic rats, 24 h after partial hepatectomy

CC(N)CCNCCCCNCCC(C)N (stereo not drawn) [bis-α-methylspermine, 1,12-dimethylspermine]
Pancreatic histology (MT-SSAT transgenic rats; [2]): modest edema | plasma amylase (MT-SSAT transgenic rats; [2]): 2744 ± 837 | prevention of pancreatitis (MT-SSAT transgenic rats; rats with depleted polyamine pools, 25 mg/kg 2 injections i.p. 20/4 hours prior to zinc): prevents pancreatitis | stimulation of DNA synthesis (thymidine incorporation) [1, 3]: about 10 fold

CC(N)CCNCCCCN (stereo not drawn) [α-methylspermidine, 1-methylspermidine]
Histological scoring (0 to 4): Edema (MT-SSAT transgenic rats; Sg rats, 1 × Me-spd 50 mg/kg): 1 | Histological scoring (0 to 4): Inflammation (MT-SSAT transgenic rats; Sg rats, 1 × Me-spd 50 mg/kg): 1 | Histological scoring (0 to 4): Necrosis (MT-SSAT transgenic rats; Sg rats, 1 × Me-spd 50 mg/kg): 0 (0, 0–5%) | Histological scoring (0 to 4): Vacuolization (MT-SSAT transgenic rats; Sg rats, 1 × Me-spd 50 mg/kg): 0 (0, 0–5%) | Histological scoring (0 to 4): Edema (MT-SSAT transgenic rats; Sg rats, 2 × Me-spd 50 mg/kg): 1 | Histological scoring (0 to 4): Inflammation (MT-SSAT transgenic rats; Sg rats, 2 × Me-spd 50 mg/kg): 0 | Histological scoring (0 to 4): Necrosis (MT-SSAT transgenic rats; Sg rats, 2 × Me-spd 50 mg/kg): 0 (0, 0–5%) | Histological scoring (0 to 4): Vacuolization (MT-SSAT transgenic rats; Sg rats, 2 × Me-spd 50 mg/kg): 0 (0, 0–5%) | Histological scoring (0 to 4): Edema (MT-SSAT transgenic rats; Tg rats, 1 × Me-spd 50 mg/kg): 1 | Histological scoring (0 to 4): Inflammation (MT-SSAT transgenic rats; Tg rats, 1 × Me-spd 50 mg/kg): 1 | Histological scoring (0 to 4): Necrosis (MT-SSAT transgenic rats; Tg rats, 1 × Me-spd 50 mg/kg): 2 (2, 15–35%) | Histological scoring (0 to 4): Vacuolization (MT-SSAT transgenic rats; Tg rats, 1 × Me-spd 50 mg/kg): 0 (0, 0–5%) | Histological scoring (0 to 4): Edema (MT-SSAT transgenic rats; Tg rats, 2 × Me-spd 50 mg/kg): 1 | Histological scoring (0 to 4): Inflammation (MT-SSAT transgenic rats; Tg rats, 2 × Me-spd 50 mg/kg): 1 | Histological scoring (0 to 4): Necrosis (MT-SSAT transgenic rats; Tg rats, 2 × Me-spd 50 mg/kg): 0–1 | Histological scoring (0 to 4): Vacuolization (MT-SSAT transgenic rats; Tg rats, 2 × Me-spd 50 mg/kg): 1 (1, 5–15%) | Plasma α-amylase activity (MT-SSAT transgenic rats; single dose 50 mg/kg 4 h before zinc): decreased after a single dose | Plasma α-amylase activity (MT-SSAT transgenic rats; two doses 50 mg/kg 20 h and 4 h before zinc): fully normalized after two repeated doses | acinar necrosis (pancreatic histology) (MT-SSAT transgenic rats; single dose before zinc): very little necrosis was present | acinar necrosis (pancreatic histology) (MT-SSAT transgenic rats; two doses before zinc): none after two doses | thymidine incorporation (DNA synthesis) ([1]; SSAT transgenic rats, 24 h after partial hepatectomy, 5 mg/kg 20 h and 4 h before): only insignificantly increased DNA synthesis | stimulation of DNA synthesis (thymidine incorporation) [1, 3]: about 10 fold | liver weight gain ([1]; non-transgenic rats, 24 h after partial hepatectomy): no effect on the weight gain | PCNA-positive hepatocytes ([1]; syngenic rats, 24 h postoperatively with the analogue): 9.8±1.5% | PCNA-positive hepatocytes ([1]; transgenic rats, 24 h postoperatively with methylspermidine): 25.9±4.9% | PCNA labeling index ([1]; syngenic livers, 24 h after partial hepatectomy): did not change PCNA labeling index | PCNA-positive cells ([1]; transgenic liver, 24 h after partial hepatectomy, from about 1%): more than 40% | liver weight ([1]; transgenic rats, 24 h after partial hepatectomy): significantly increased the organ weight
